In this assay the test system is fibroblasts isolated from the lungs of mice. In words: Western blotting and quantitative RT-PCR of fibroblasts isolated from lungs of treated BLM mice. In kind it is in vivo. Conditions: fibroblasts from BLM mice treated with nutlin-3a. The protocol: FIGS. 12A-12C. CSP-4 or nutlin-3a (NTL) inhibits proliferation of FL-fibroblasts. Mice were exposed to BLM for 14 d to induce significant lung fibrosis or to saline (fibrosis controls). 14 d later, mice exposed to BLM were treated with CSP-4 or CP, or nutlin-3a (see FIGS. 10A-10D/11A-11D). (FIG. 12A): Lung sections (d 21 after BLM injury) were subjected to immunohistochemistry (IHC) for Ki-67 to assess proliferation. One representative example is shown (n=9). Fibroblasts were isolated from the lungs of mice exposed to saline, BLM or BLM+nutlin-3a (as described in FIG. 11A) were tested for the changes in expression of col-I, p53 and downstream uPA and PAI-1 proteins by Western blotting (FIG. 12B):, and mRNA by quantitative RT-PCR (FIG. 12C).
Mice exposed to BLM 14 days earlier were treated with CSP-4 or its control (CP) or Nutlin-3a IV (as in Examples IX and X). Seven days later lung sections were obtained and subjected to IHC for Ki-67 to assess cell proliferation (see FIG. 12A). […] Fibroblasts isolated from the lungs of these animals (as described in Example X) were tested for the changes in expression of col-I, p53 and downstream uPA and PAI-1 proteins by Western blotting, and mRNA by quantitative RT-PCR (see FIGS. 12B-12C).

The record followed here is patent publication US12173089B2, “Inhibition of pulmonary fibrosis with nutlin-3A and peptides” (BOARD OF REGENTS, THE UNIVERSITY OF TEXAS SYSTEM, priority 2013, dated 2024).

On to `COc1ccc(C2=NC(c3ccc(Cl)cc3)C(c3ccc(Cl)cc3)N2C(=O)N2CCNC(=O)C2)c(OC(C)C)c1` (stereo not shown) [nutlin-3a, 4-2-4,5-dihydro-1H-imidazole-1-piperazin-2-one], for which the “PAI-1 protein and mRNA expression” value is “marked induction”; the “col-I protein and mRNA expression” value was “significant suppressed”; the p53 protein entry is on record as “marked induction”; the “uPA protein and mRNA expression” value is recorded as “significant suppressed”.
